Test results reported in US4709012A, “Novel inhibitor peptides” (Washington University, priority 1986, dated 1987).
Where no end group is shown, it is not given here.

Experiments:
Experiment in all cases: Octapeptide substrate specificity / kinetic characterization with partially purified yeast myristoylating enzyme (Table II)
[1] = biological target: T1, myristoylating enzyme from yeast (N-myristoylglycylpeptide synthetase) (Saccharomyces cerevisiae, UniProt P14743); type: biochemical; conditions: for Ki: inhibition of myristoylation of the substrate Gly-Asn-Ala-Ala-Ala-Ala-Arg-Arg
T1 construct: partially purified from a crude homogenate of the cultured yeast cells by fractionation with 51-70% (NH4)2 SO4; endogenous in cells; host or cells: S. cerevisiae strain JR153; ammonium sulfate cut, DEAE-Sepharose CL-6B, CoA-agarose
T1 sequence (P14743 1-455): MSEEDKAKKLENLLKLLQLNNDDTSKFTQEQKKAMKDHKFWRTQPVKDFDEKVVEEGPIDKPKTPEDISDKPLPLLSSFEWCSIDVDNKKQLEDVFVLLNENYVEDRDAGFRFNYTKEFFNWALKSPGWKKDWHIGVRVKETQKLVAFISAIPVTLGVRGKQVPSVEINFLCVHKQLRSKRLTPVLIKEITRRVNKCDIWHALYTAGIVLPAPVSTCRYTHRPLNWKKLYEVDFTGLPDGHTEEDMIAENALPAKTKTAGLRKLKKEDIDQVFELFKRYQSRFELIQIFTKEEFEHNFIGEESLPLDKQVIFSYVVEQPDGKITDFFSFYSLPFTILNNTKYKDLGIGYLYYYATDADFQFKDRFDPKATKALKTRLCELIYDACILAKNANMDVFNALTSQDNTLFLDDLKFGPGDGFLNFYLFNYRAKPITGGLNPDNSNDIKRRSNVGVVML
Description: (§1) The synthetic octapeptide Gly-Asn-Ala-Ala-Ala-Ala-Arg-Arg was initially used to identify a unique enzymatic activity which transfers myristic acid to the amino terminal glycine of this and other peptides. […] The enzyme activity was determined in an in vitro assay which measures the transfer of [^3 H]-myristic acid to the acceptor peptide. The transfer reaction is dependent on adenosine triphosphate (ATP) and coenzyme A (CoA). The enzymatic product was then identified by high performance liquid chromatography (HPLC) by co-elution with a chemically synthesized myristoyl peptide standard. […] Both contained M-myristoyl glycine.
(§2) [^3 H]Fatty acyl CoA was synthesized enzymatically and added to the incubation as follows. The acyl CoA synthetase reaction consisted of (per one assay tube): 0.5 μCi of [^3 H]myristic acid; 25 μl of 2X assay buffer (20 mM Tris, pH 7.4, 2 mM dithiothreitol, 10 mM MgCl2, 0.2 mM EGTA); 5 μl of 50 mM ATP in distilled water, adjusted to pH 7.0 with NaOH; […] in distilled water; 15 μl of lmU/μl of Pseudomonas acyl CoA synthetase (Sigma) in 50 mM N-2-hydroxyethylpiperazine-N'-2-ethane sulfonic acid, pH 7.3; 2.5 μl of distilled water. The reaction was allowed to proceed for 20 minutes at 30° C. Typically, 40% to 50% of the [^3 H]fatty acid was converted to its CoA ester by this procedure as measured by determining the radioactivity remaining in the reaction after acidification with 6 N HCl to pH 2.0 and extraction 6 times with 5 volumes of heptane, a modification of the method of Hosaka et al., Meth. Enzymol. 71, 325-333 (1981). Fifty microliters of this reaction were added to tubes containing 40 μl of assay extraction buffer (see above) and 10 μl of 1 mM GlyAsnAlaAlaAlaAlaArgArg. The assay was initiated by the addition of 10 μl of yeast cell extract (typically 50 μg of protein) per tube, followed by incubation at 30° C. for 10 min. The assay was terminated by the addition of 110 μl of methanol and 10 μl of 100% trichloracetic acid (w/v) per tube, followed by cooling ten minutes on ice. Precipitated protein was removed by centrifugation at 8000 x g for 3 minutes in a tabletop Eppendorf centrifuge. (Under these conditions, 95% of synthetic [^3 H]myristoylpeptide or [^3 H]palmitoylpeptide remined soluble when added to an assay mixture.) Fifty microliters of the supernatant were mixed with 75 μl methanol and 75 μl of HPLC buffer A, and analyzed by reverse phase HPLC on a 3.9 mm by 30 cm Waters μ-Bondapak C18 column using the same HPLC buffers described above, starting at 35% acetonitrile and eluting with a 1% per minute acetonitrile gradient. One minute fractions were collected and the radioactivity in each fraction determined by liquid scintillation counting. [^3 H]Myristoyl-GlyAsnAlaAlaAlaAlaArgArg eluted at 24 minutes, while [^3 H]palmitoyl-GlyAsnAlaAlaAlaAlaArgArg eluted at 30 minutes.
Several octapeptides illustrating the present invention were synthesized by the solid phase Merrifield procedure essentially as described in Example 1 and then tested for activity as substrates or inhibitors for the myristoylating enzyme from yeast (S. cerevisiae strain JR153). The octapeptide substrate specificity of the enzyme was tested under the assay conditions described in Example 2 but using 1 μCi of [^3 H]- myristic acid per assay tube. The yeast enzyme used in this example was partially purified from a crude homogenate of the cultured yeast cells by fractionation with 51-70% (NH4)2 SO4 followed by ion exchange column chromatography with DEAE-Sepharose® CL-6B (Pharmacia) and affinity chromatography with CoA-agarose affinity matrix (Pharmacia).

[2] = substrate: CC(C)C[C@H](NC(=O)CN)C(=O)N[C@@H](C)C(=O)N[C@@H](C)C(=O)N[C@@H](C)C(=O)N[C@@H](C)C(=O)N[C@@H](CCCNC(=N)N)C(=O)N[C@@H](CCCNC(=N)N)C(N)=O; type: biochemical, Saccharomyces cerevisiae; conditions: other: peptide as acyl acceptor, 1 μCi [3H]-myristic acid per tube, 30.0 °C
Description: as §1
as §2, with “The reaction was allowed to proceed for 20 minutes at 30° C.” left out, “Enzymol. 71, 325-333 (1981). Fifty microliters of this reaction were added to tubes containing 40 μl of assay extraction buffer (see above) and 10 μl of 1 mM GlyAsnAlaAlaAlaAlaArgArg. The assay was initiated by the addition of 10 μl of yeast cell extract (typically 50 μg of protein) per tube, followed by incubation at 30° C. for 10 min. The assay was terminated by the addition of 110 μl of methanol and 10 μl of 100% trichloracetic acid (w/v) per tube, followed by cooling ten minutes on ice. Precipitated protein was removed by centrifugation at 8000 x g for 3 minutes in a tabletop Eppendorf centrifuge.” left out, “[^3 H]Myristoyl-GlyAsnAlaAlaAlaAlaArgArg eluted at 24 minutes, while [^3 H]palmitoyl-GlyAsnAlaAlaAlaAlaArgArg eluted at 30 minutes.” left out

[3] = substrate: CC(C)[C@H](NC(=O)CN)C(=O)N[C@@H](C)C(=O)N[C@@H](C)C(=O)N[C@@H](C)C(=O)N[C@@H](C)C(=O)N[C@@H](CCCNC(=N)N)C(=O)N[C@@H](CCCNC(=N)N)C(N)=O; type: biochemical, Saccharomyces cerevisiae; conditions: other: peptide as acyl acceptor, 1 μCi [3H]-myristic acid per tube, 30.0 °C
Description: as §1
as §2, with “The reaction was allowed to proceed for 20 minutes at 30° C.” left out, “Enzymol. 71, 325-333 (1981). Fifty microliters of this reaction were added to tubes containing 40 μl of assay extraction buffer (see above) and 10 μl of 1 mM GlyAsnAlaAlaAlaAlaArgArg. The assay was initiated by the addition of 10 μl of yeast cell extract (typically 50 μg of protein) per tube, followed by incubation at 30° C. for 10 min. The assay was terminated by the addition of 110 μl of methanol and 10 μl of 100% trichloracetic acid (w/v) per tube, followed by cooling ten minutes on ice. Precipitated protein was removed by centrifugation at 8000 x g for 3 minutes in a tabletop Eppendorf centrifuge.” left out, “[^3 H]Myristoyl-GlyAsnAlaAlaAlaAlaArgArg eluted at 24 minutes, while [^3 H]palmitoyl-GlyAsnAlaAlaAlaAlaArgArg eluted at 30 minutes.” left out

[4] = substrate: C[C@H](NC(=O)[C@H](C)NC(=O)[C@H](C)NC(=O)[C@H](CC(N)=O)NC(=O)CN)C(=O)N[C@@H](C)C(=O)N[C@@H](CCCNC(=N)N)C(=O)N[C@@H](CCCNC(=N)N)C(N)=O; type: biochemical, Saccharomyces cerevisiae; conditions: other: peptide as acyl acceptor, 1 μCi [3H]-myristic acid per tube, 30.0 °C
Description: as §1
as §2, with “The reaction was allowed to proceed for 20 minutes at 30° C.” left out, “Enzymol. 71, 325-333 (1981). Fifty microliters of this reaction were added to tubes containing 40 μl of assay extraction buffer (see above) and 10 μl of 1 mM GlyAsnAlaAlaAlaAlaArgArg. The assay was initiated by the addition of 10 μl of yeast cell extract (typically 50 μg of protein) per tube, followed by incubation at 30° C. for 10 min. The assay was terminated by the addition of 110 μl of methanol and 10 μl of 100% trichloracetic acid (w/v) per tube, followed by cooling ten minutes on ice. Precipitated protein was removed by centrifugation at 8000 x g for 3 minutes in a tabletop Eppendorf centrifuge.” left out, “[^3 H]Myristoyl-GlyAsnAlaAlaAlaAlaArgArg eluted at 24 minutes, while [^3 H]palmitoyl-GlyAsnAlaAlaAlaAlaArgArg eluted at 30 minutes.” left out

[5] = partially purified yeast enzyme

Q: “GLAAAARR-NH2 [Gly--Leu--Ala--Ala--Ala--Ala--Arg--Arg]” was tested. Which Ki [1, 5] did it give?
A: The Ki was 60 µM.

Q: For “GNAAAARR-NH2 [Gly--Asn--Ala--Ala--Ala--Ala--Arg--Arg, Gly-Asn-Ala-Ala-Ala-Ala-Arg-Arg, reference compound]”, which Vmax ([1]; absolute Vmax, footnote to Table II) is on record?
A: The Vmax was 2840 pmol myristoyl peptide formed.

Q: And the “Relative Vmax (%)” value ([1]; relative to Gly-Asn-Ala-Ala-Ala-Ala-Arg-Arg = 100, partially purified yeast enzyme)?
A: The value was 100%.

Q: How did the Ki [1, 5] turn out when “GYAAAARR-NH2 [Gly--Tyr--Ala--Ala--Ala--Ala--Arg--Arg, Gly-Tyr-Ala-Ala-Ala-Ala-Arg-Arg]” was run?
A: Its Ki is 150 µM.

Q: With “GFAAAARR-NH2 [Gly--Phe--Ala--Ala--Ala--Ala--Arg--Arg, Gly-Phe-Ala-Ala-Ala-Ala-Arg-Argp]” as the molecule, how does the Ki [1, 5] read?
A: The Ki was 150 µM.

Q: For “GVAAAARR-NH2 [Gly--Val--Ala--Ala--Ala--Ala--Arg--Arg]”, which Ki [1, 5] is on record?
A: The Ki was 60 µM.

B1: myristoylating enzyme from yeast (N-myristoylglycylpeptide synthetase) (Saccharomyces cerevisiae S288C) (protein)
chain: MSEEDKAKKLENLLKLLQLNNDDTSKFTQEQKKAMKDHKFWRTQPVKDFDEKVVEEGPIDKPKTPEDISDKPLPLLSSFEWCSIDVDNKKQLEDVFVLLNENYVEDRDAGFRFNYTKEFFNWALKSPGWKKDWHIGVRVKETQKLVAFISAIPVTLGVRGKQVPSVEINFLCVHKQLRSKRLTPVLIKEITRRVNKCDIWHALYTAGIVLPAPVSTCRYTHRPLNWKKLYEVDFTGLPDGHTEEDMIAENALPAKTKTAGLRKLKKEDIDQVFELFKRYQSRFELIQIFTKEEFEHNFIGEESLPLDKQVIFSYVVEQPDGKITDFFSFYSLPFTILNNTKYKDLGIGYLYYYATDADFQFKDRFDPKATKALKTRLCELIYDACILAKNANMDVFNALTSQDNTLFLDDLKFGPGDGFLNFYLFNYRAKPITGGLNPDNSNDIKRRSNVGVVML
notes: partially purified from a crude homogenate of the cultured yeast cells by fractionation with 51-70% (NH4)2 SO4; endogenous in cells; host or cells: S. cerevisiae strain JR153; ammonium sulfate cut, DEAE-Sepharose CL-6B, CoA-agarose
Q: What does the source list for B1?
A: Km [2]: 300 µM; Km [3]: 700 µM; Km [4]: 60 µM
